Source: US7226623B2, “In vitro and in vivo anti-inflammatory effects of a sesquiterpene lactone extract from chicory (Cichorium intybus L.)” (Rutgers, The State University of New Jersey, priority 2005, dated 2007)

Experiments:
[1] = tested on: nitric oxide production by LPS-induced macrophages; test: Griess assay for NO production; format: cell-based, murine; conditions: aspirin 10 μM, LPS 1 μg/mL, 24 hours
Method: Down-regulation of various pro-inflammatory genes, including iNOS, IL1β and TNF-α, can reduce nitric oxide production by macrophages. In order to confirm that changes in pro-inflammatory gene expression were affecting cellular function, the Griess assay was performed to indirectly measure nitric oxide production by LPS-induced macrophages by measuring nitrite. For the assay, RAW cells were plated in a 96-well plate at a minimum density of 5×10^3 cells/well and grown for 24 hours. […] After 24 hours, conditioned media (50 μl) was removed and immediately mixed with 100 μl of Griess reagent ([…], 1% naphthalene-ethylenediamine dihydrochloride in 5% H3PO4). After incubation for 15 minutes at room temperature, the samples were read at 550 nm using a microplate spectrophotometer (Molecular Devices, Sunnyvale, Calif.). Data for each treatment were normalized based on results from an MTT cell proliferation assay.

[2] = tested on: Wistar rats; test: Carrageenan-induced rat paw edema; format: in vivo; conditions: indomethacin (15 mg/kg)
Method: Groups of 5 adult male and female Wistar rats with body weights from 136 g to 170 g were used for this study. Rats were housed five animals per cage in a room kept at 24-26° C. and fed ad libitium. Before the experiment began, rat paw sizes were recorded by measuring paw volume three times on each animal using a plethysmometer (Ugo Basile, Comerio VA, Italy). The values were averaged to give a baseline paw size value. To start the experiment, animals were given a subcutaneous injection of 1% carrageenan (100 μl; Sigma, St. Louis, Mo.) in the area of the back paw to induce an acute inflammatory reaction (paw edema). One hour after carrageenan injection, rats were orally gavaged with chicory extract or vehicle control (4% apricot kernel balm). Paw size was measured at 3 hours, 5 hours, and 24 hours after injection. The increase in paw edema at each time point was determined by comparison with paw volume measured pre-injection. Inhibition of edema was calculated by comparison with vehicle control at the same time point.

[3] = tested on: BALB/c mice; test: Collagen induced arthritis (type II collagen mAbs with LPS challenge); format: in vivo; conditions: indomethacin 3 mg/kg oral
Method: Groups of 5 BALB/c mice weighing 25±2 g were used for this study. A 4 mg/mouse combination of 4 monoclonal antibodies (mAbs) against type II collagen (D8, F10, DI-2G, and A2; IBL Co., Japan) was administered to mice intravenously on day 0 of the study to induce an inflammatory reaction mimicking rheumatoid arthritis. On day 3 of the study, mice were given LPS ([…]) intravenously to potentiate the inflammatory effect. One hour after LPS administration, mice were dosed orally with chicory extract (200 mg/kg), indomethacin (3 mg/kg; Sigma, St. Louis, Mo.), or vehicle control (1% carboxymethylcellulose, CMC; Sigma, St. Louis, Mo.). Mice were dosed with chicory extract or vehicle for two more consecutive days. Volumes of both hind paws were measured using a plethysmometer on days 0, 5, 7, 10, 14, and 17. The increase in paw edema at each time point was determined by comparison with paw volume measured on day 0. Inhibition of edema was calculated by comparison with vehicle control at the same time point. This study was a GLP study (#1038342) performed by MDS Pharma Services (Taiwan).

CC(=O)Oc1ccccc1C(=O)O [aspirin]
Griess assay % LPS control [1]: 69%

COc1ccc2c(c1)c(CC(=O)O)c(C)n2C(=O)c1ccc(Cl)cc1 [indomethacin]
Rat Paw Edema, inhibition of edema vs vehicle control ([2]; 3 h after carrageenan): 43%
Rat Paw Edema, inhibition of edema vs vehicle control ([2]; 5 h after carrageenan): 36%
Rat Paw Edema, inhibition of edema vs vehicle control ([2]; 24 h after carrageenan): 51%
Mouse arthritis % inhibition of edema ([3]; day 5): 83%
Mouse arthritis % inhibition of edema ([3]; day 7): 81%
Mouse arthritis % inhibition of edema ([3]; day 10): 82%
Mouse arthritis % inhibition of edema ([3]; day 14): 77%
Mouse arthritis % inhibition of edema ([3]; day 17): 85%
